Laboratory results: ChEMBL document CHEMBL4507273 (2021)

What was measured:
[1] = target: Histamine H2 receptor (Homo sapiens, UniProt P25021); assay: GPCRScan assay: inhibition of H2; design: radioligand conc. used [nm] 0.02 – 0.05, parental cells Stable HEK
[2] = target: Muscarinic acetylcholine receptor M2 (Homo sapiens, UniProt P08172); assay: GPCRScan assay: inhibition of M2; design: radioligand conc. used [nm] 0.2 – 1.0, parental cells stable CHO
[3] = target: Epidermal growth factor receptor (Homo sapiens, UniProt P00533); assay: EGFR kinase inhibition assay
[4] = target: AP2-associated protein kinase 1 (Homo sapiens) (UniProt Q2M2I8); conditions: Compound concentration 1000.0 nM
[5] = test system: Tyrosine-protein kinase ABL1 (Homo sapiens), P00519 [Y253F]; conditions: Compound concentration 1000.0 nM
[6] = target: Activin receptor type-2B (Homo sapiens) (UniProt Q13705); conditions: Compound concentration 1000.0 nM
[7] = target: Activin receptor type-1-like (Homo sapiens) (UniProt P37023); conditions: Compound concentration 1000.0 nM
[8] = target: Aurora kinase C (Homo sapiens) (UniProt Q9UQB9); conditions: Compound concentration 1000.0 nM
[9] = target: Serine/threonine-protein kinase BRSK2 (Homo sapiens) (UniProt Q8IWQ3); conditions: Compound concentration 1000.0 nM
[10] = target: Calcium/calmodulin-dependent protein kinase type 1D (Homo sapiens) (UniProt Q8IU85); conditions: Compound concentration 1000.0 nM
[11] = target: Cyclin-dependent kinase-like 3 (Homo sapiens) (UniProt Q8IVW4); conditions: Compound concentration 1000.0 nM
[12] = target: Cyclin-dependent kinase-like 5 (Homo sapiens) (UniProt O76039); conditions: Compound concentration 1000.0 nM
[13] = target: Macrophage colony-stimulating factor 1 receptor (Homo sapiens) (UniProt P07333); conditions: Compound concentration 1000.0 nM
[14] = target: Casein kinase I isoform alpha (Homo sapiens) (UniProt P48729); conditions: Compound concentration 1000.0 nM
[15] = target: Epithelial discoidin domain-containing receptor 1 (Homo sapiens) (UniProt Q08345); conditions: Compound concentration 1000.0 nM
[16] = target: Dual specificity tyrosine-phosphorylation-regulated kinase 1B (Homo sapiens) (UniProt Q9Y463); conditions: Compound concentration 1000.0 nM
[17] = test system: Epidermal growth factor receptor (Homo sapiens), P00533 [L858R,T790M]; conditions: Compound concentration 1000.0 nM
[18] = target: Ephrin type-B receptor 4 (Homo sapiens) (UniProt P54760); conditions: Compound concentration 1000.0 nM
[19] = target: Mitogen-activated protein kinase 6 (Homo sapiens) (UniProt Q16659); conditions: Compound concentration 1000.0 nM
[20] = target: Vascular endothelial growth factor receptor 1 (Homo sapiens) (UniProt P17948); conditions: Compound concentration 1000.0 nM
[21] = target: Vascular endothelial growth factor receptor 3 (Homo sapiens) (UniProt P35916); conditions: Compound concentration 1000.0 nM
[22] = target: Mitogen-activated protein kinase 9 (Homo sapiens) (UniProt P45984); conditions: Compound concentration 1000.0 nM
[23] = target: Serine/threonine-protein kinase LATS1 (Homo sapiens) (UniProt O95835); conditions: Compound concentration 1000.0 nM
[24] = target: Serine/threonine-protein kinase 10 (Homo sapiens) (UniProt O94804); conditions: Compound concentration 1000.0 nM
[25] = target: Maternal embryonic leucine zipper kinase (Homo sapiens) (UniProt Q14680); conditions: Compound concentration 1000.0 nM
[26] = target: Serine/threonine-protein kinase 4 (Homo sapiens) (UniProt Q13043); conditions: Compound concentration 1000.0 nM
[27] = target: Serine/threonine-protein kinase 3 (Homo sapiens) (UniProt Q13188); conditions: Compound concentration 1000.0 nM
[28] = target: Serine/threonine-protein kinase Nek6 (Homo sapiens) (UniProt Q9HC98); conditions: Compound concentration 1000.0 nM
[29] = target: Mitogen-activated protein kinase 11 (Homo sapiens) (UniProt Q15759); conditions: Compound concentration 1000.0 nM
[30] = target: Phosphorylase b kinase gamma catalytic chain, skeletal muscle/heart isoform (Homo sapiens) (UniProt Q16816); conditions: Compound concentration 1000.0 nM
[31] = test system: Phosphatidylinositol 4,5-bisphosphate 3-kinase catalytic subunit alpha isoform (Homo sapiens), P42336 [H1047L]; conditions: Compound concentration 1000.0 nM
[32] = target: Protein kinase C iota type (Homo sapiens) (UniProt P41743); conditions: Compound concentration 1000.0 nM
[33] = target: Serine/threonine-protein kinase D1 (Homo sapiens) (UniProt Q15139); conditions: Compound concentration 1000.0 nM
[34] = target: Serine/threonine-protein kinase D3 (Homo sapiens) (UniProt O94806); conditions: Compound concentration 1000.0 nM
[35] = target: cGMP-dependent protein kinase 1 (Homo sapiens) (UniProt Q13976); conditions: Compound concentration 1000.0 nM
[36] = target: Serine/threonine-protein kinase SIK3 (Homo sapiens) (UniProt Q9Y2K2); conditions: Compound concentration 1000.0 nM
[37] = target: Serine/threonine-protein kinase RIO1 (Homo sapiens) (UniProt Q9BRS2); conditions: Compound concentration 1000.0 nM
[38] = target: Ribosomal protein S6 kinase alpha-2 (Homo sapiens) (UniProt Q15349); conditions: Compound concentration 1000.0 nM
[39] = target: Mitogen-activated protein kinase kinase kinase 7 (Homo sapiens) (UniProt O43318); conditions: Compound concentration 1000.0 nM
[40] = target: Serine/threonine-protein kinase TNNI3K (Homo sapiens) (UniProt Q59H18); conditions: Compound concentration 1000.0 nM
[41] = target: Wee1-like protein kinase (Homo sapiens) (UniProt P30291); conditions: Compound concentration 1000.0 nM
[42] = target: Serine/threonine-protein kinase WNK4 (Homo sapiens) (UniProt Q96J92); conditions: Compound concentration 1000.0 nM
[43] = target: Serine/threonine-protein kinase 25 (Homo sapiens) (UniProt O00506); conditions: Compound concentration 1000.0 nM
[44] = target: Muscarinic acetylcholine receptor M5 (Homo sapiens) (UniProt P08912); conditions: Compound concentration 10.0 uM

Sequence of Histamine H2 receptor (P25021 whole entry): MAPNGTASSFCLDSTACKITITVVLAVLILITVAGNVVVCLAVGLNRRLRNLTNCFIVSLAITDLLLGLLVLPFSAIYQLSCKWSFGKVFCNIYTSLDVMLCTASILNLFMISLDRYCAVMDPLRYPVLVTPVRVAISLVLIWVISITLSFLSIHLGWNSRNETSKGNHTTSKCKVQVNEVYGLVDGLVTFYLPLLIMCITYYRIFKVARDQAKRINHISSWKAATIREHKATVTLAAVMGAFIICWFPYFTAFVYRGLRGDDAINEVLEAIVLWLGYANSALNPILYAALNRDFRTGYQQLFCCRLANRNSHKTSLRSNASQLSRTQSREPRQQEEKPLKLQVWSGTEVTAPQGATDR
Sequence of Macrophage colony-stimulating factor 1 receptor (Homo sapiens) (P07333 whole entry, canonical isoform): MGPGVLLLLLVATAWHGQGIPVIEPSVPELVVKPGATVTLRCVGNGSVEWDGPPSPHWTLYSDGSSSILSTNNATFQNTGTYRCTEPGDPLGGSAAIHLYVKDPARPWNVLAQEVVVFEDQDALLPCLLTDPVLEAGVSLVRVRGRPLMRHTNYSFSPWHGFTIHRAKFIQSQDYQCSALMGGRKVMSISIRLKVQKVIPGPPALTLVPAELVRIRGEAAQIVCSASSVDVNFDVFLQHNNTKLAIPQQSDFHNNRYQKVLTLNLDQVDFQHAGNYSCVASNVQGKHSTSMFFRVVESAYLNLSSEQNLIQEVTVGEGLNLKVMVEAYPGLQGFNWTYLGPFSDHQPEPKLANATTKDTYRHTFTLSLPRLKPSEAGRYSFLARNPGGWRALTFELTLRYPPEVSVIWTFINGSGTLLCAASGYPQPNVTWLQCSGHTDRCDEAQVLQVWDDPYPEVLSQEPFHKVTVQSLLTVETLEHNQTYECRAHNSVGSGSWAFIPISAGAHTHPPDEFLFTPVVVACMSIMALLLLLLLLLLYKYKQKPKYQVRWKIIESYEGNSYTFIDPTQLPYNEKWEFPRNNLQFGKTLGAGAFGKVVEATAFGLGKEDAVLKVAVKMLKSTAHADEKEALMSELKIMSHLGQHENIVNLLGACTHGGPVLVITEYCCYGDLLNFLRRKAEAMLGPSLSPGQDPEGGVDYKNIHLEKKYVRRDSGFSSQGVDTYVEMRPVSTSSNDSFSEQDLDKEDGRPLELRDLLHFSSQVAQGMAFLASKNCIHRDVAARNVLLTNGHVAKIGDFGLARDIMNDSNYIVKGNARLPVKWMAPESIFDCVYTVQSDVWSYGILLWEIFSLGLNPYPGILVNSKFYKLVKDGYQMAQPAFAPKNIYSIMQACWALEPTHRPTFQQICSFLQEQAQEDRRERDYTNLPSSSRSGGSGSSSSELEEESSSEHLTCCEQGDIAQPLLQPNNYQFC
Sequence of Epithelial discoidin domain-containing receptor 1 (Homo sapiens) (Q08345 whole entry, the tested form may be a part): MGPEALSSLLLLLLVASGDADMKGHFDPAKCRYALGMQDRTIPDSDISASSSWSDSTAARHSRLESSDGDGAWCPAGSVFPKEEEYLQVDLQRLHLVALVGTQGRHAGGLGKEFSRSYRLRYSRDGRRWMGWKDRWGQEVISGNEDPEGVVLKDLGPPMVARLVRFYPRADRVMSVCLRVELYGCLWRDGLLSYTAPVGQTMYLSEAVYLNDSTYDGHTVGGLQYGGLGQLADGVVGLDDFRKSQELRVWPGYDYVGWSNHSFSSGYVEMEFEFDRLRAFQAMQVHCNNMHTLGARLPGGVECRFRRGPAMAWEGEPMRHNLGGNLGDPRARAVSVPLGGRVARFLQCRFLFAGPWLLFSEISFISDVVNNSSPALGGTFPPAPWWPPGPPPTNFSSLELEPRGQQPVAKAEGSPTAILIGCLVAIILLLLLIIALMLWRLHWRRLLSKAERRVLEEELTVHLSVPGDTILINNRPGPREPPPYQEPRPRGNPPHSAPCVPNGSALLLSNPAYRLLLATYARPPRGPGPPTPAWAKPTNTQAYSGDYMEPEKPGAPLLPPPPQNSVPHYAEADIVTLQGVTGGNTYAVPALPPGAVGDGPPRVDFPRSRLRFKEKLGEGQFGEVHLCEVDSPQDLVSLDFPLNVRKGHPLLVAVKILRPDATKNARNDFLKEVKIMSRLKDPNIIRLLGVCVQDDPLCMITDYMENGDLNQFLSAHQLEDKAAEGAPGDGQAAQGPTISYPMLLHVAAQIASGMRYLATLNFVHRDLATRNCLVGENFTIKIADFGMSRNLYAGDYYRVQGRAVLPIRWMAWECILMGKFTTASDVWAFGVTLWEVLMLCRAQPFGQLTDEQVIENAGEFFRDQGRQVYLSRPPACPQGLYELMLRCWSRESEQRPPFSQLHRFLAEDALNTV
Sequence of Phosphorylase b kinase gamma catalytic chain, skeletal muscle/heart isoform (Homo sapiens) (Q16816 whole entry, looked up, canonical isoform): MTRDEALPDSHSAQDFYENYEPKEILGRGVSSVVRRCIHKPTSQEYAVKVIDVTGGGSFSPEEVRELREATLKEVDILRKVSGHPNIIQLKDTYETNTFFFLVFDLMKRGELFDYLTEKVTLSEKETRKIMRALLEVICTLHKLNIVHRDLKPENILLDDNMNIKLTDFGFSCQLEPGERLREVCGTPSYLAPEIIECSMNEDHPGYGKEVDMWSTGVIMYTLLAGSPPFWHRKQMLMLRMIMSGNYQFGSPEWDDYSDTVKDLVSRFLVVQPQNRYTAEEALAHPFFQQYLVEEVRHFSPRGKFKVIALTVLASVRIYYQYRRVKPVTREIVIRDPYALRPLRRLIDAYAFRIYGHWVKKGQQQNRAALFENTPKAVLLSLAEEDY
Sequence of cGMP-dependent protein kinase 1 (Homo sapiens) (Q13976 whole entry): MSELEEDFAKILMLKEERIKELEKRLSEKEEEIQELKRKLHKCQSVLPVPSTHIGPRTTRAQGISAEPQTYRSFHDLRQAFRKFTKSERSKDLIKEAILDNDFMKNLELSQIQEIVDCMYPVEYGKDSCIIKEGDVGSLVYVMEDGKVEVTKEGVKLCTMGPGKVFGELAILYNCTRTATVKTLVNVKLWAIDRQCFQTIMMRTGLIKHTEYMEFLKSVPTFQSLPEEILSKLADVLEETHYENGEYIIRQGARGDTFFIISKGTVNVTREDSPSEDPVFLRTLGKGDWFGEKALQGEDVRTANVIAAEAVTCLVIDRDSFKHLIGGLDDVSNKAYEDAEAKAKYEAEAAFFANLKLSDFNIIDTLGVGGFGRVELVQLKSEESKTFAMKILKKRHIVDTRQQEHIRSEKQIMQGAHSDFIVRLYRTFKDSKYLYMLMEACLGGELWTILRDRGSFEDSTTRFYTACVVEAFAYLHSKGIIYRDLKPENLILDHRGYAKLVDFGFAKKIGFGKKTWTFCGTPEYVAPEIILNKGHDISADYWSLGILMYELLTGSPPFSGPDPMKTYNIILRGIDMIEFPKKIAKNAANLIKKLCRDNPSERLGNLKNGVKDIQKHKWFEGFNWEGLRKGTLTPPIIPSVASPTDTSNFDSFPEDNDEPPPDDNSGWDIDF
Sequence of Vascular endothelial growth factor receptor 3 (Homo sapiens) (P35916 whole entry): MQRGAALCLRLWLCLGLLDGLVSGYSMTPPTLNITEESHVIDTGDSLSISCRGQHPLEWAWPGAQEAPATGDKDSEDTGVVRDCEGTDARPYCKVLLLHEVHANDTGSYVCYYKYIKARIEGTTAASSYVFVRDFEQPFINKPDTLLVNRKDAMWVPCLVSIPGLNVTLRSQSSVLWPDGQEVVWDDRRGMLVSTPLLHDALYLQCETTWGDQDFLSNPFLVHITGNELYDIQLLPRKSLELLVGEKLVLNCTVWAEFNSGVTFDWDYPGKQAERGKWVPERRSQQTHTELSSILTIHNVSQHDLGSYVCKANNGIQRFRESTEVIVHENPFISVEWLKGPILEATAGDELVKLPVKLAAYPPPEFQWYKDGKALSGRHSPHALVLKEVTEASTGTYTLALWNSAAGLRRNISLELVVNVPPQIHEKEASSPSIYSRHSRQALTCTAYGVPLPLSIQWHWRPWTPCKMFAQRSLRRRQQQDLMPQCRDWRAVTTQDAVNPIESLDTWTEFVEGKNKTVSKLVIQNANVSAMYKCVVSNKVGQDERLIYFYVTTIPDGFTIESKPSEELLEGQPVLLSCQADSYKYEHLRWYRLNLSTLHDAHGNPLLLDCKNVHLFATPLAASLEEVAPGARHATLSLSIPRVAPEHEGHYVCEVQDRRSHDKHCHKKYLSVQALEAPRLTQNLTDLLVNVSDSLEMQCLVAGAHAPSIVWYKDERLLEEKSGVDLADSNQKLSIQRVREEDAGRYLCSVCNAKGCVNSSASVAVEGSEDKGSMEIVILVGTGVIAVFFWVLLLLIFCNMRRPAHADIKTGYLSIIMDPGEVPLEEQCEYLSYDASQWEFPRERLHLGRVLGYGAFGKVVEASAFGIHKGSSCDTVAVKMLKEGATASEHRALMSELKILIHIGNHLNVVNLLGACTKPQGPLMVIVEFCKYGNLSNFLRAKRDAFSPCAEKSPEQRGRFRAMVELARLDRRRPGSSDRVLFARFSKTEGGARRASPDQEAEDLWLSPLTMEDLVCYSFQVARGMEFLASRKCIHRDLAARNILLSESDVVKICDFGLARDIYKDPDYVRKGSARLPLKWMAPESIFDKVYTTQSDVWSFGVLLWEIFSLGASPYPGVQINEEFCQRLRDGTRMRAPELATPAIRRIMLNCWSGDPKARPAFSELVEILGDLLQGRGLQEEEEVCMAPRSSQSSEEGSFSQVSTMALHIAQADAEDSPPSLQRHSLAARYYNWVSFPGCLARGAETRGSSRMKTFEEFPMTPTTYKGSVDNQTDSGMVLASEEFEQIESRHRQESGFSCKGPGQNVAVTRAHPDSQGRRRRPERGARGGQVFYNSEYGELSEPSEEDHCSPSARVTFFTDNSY
Sequence of Aurora kinase C (Homo sapiens) (Q9UQB9 whole entry): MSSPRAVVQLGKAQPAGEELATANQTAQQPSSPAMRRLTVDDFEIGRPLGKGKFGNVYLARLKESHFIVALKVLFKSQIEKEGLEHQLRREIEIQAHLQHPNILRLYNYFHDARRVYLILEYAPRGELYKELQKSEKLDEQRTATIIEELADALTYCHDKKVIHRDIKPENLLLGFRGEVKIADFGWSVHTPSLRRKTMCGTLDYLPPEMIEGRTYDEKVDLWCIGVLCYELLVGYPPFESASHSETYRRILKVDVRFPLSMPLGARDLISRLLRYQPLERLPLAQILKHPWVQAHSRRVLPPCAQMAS

Compound: CNCc1ccccc1-c1csc([C@@H](C)Nc2nc(C)nc3cc(OC)c(OC)cc23)c1 [BAY-293]
- Ki ([1]; read-out: Ki): 140 nM
- Ki ([1]; read-out: pKi (converted)): 140 nM
- Ki [2]: 512 nM
- IC50 [3]: > 20000 nM (not active)
- residual activity [4]: 95%
- residual activity [5]: 94%
- residual activity [6]: 100%
- residual activity [7]: 87%
- residual activity [8]: 92%
- residual activity [9]: 100%
- residual activity [10]: 100%
- residual activity [11]: 99%
- residual activity [12]: 94%
- residual activity [13]: 100%
- residual activity [14]: 73%
- residual activity [15]: 100%
- residual activity [16]: 64%
- residual activity [17]: 93%
- residual activity [18]: 99%
- residual activity [19]: 100%
- residual activity [20]: 87%
- residual activity [21]: 83%
- residual activity [22]: 71%
- residual activity [23]: 100%
- residual activity [24]: 95%
- residual activity [25]: 53%
- residual activity [26]: 100%
- residual activity [27]: 85%
- residual activity [28]: 96%
- residual activity [29]: 86%
- residual activity [30]: 83%
- residual activity [31]: 95%
- residual activity [32]: 100%
- residual activity [33]: 90%
- residual activity [34]: 92%
- residual activity [35]: 100%
- residual activity [36]: 90%
- residual activity [37]: 100%
- residual activity [38]: 100%
- residual activity [39]: 70%
- residual activity [40]: 100%
- residual activity [41]: 100%
- residual activity [42]: 100%
- residual activity [43]: 89%
- inhibition [44]: 64.8%

Compound: CNCc1ccccc1-c1csc([C@H](C)Nc2nc(C)nc3cc(OC)c(OC)cc23)c1 [BAY-294]
- Ki ([1]; read-out: Ki): 21.1 nM
- Ki [2]: 1470 nM
- IC50 [3]: > 20000 nM (not active)
- residual activity [4]: 94%
- residual activity [5]: 94%
- residual activity [6]: 100%
- residual activity [7]: 100%
- residual activity [8]: 94%
- residual activity [9]: 100%
- residual activity [10]: 100%
- residual activity [11]: 97%
- residual activity [12]: 87%
- residual activity [13]: 100%
- residual activity [14]: 74%
- residual activity [15]: 100%
- residual activity [16]: 55%
- residual activity [17]: 87%
- residual activity [18]: 100%
- residual activity [19]: 100%
- residual activity [20]: 91%
- residual activity [21]: 100%
- residual activity [22]: 71%
- residual activity [23]: 100%
- residual activity [24]: 100%
- residual activity [25]: 74%
- residual activity [26]: 100%
- residual activity [27]: 89%
- residual activity [28]: 100%
- residual activity [29]: 100%
- residual activity [30]: 87%
- residual activity [31]: 88%
- residual activity [32]: 87%
- residual activity [33]: 100%
- residual activity [34]: 100%
- residual activity [35]: 100%
- residual activity [36]: 78%
- residual activity [37]: 96%
- residual activity [38]: 100%
- residual activity [39]: 75%
- residual activity [40]: 100%
- residual activity [41]: 100%
- residual activity [42]: 90%
- residual activity [43]: 100%
- inhibition [44]: 54.1%
